Data from ChEMBL document CHEMBL1201862, “PubChem BioAssay data set” (2004).
Activity calls are given as the source filed them.

Columns and labels:
[1] = molecular target: NACHT, LRR and PYD domains-containing protein 3 (Homo sapiens, UniProt Q96P20); assay: NALP3 inhibitors in yeast, dose response, luminescent (AID 488799); type: functional
Ion channel NompC = Ion channel NompC (Danio rerio, UniProt Q7T1G6); assay: Fluorescence counterscreen assay for TRPML3 agonists: dose response cell-based high-throughput screening assay to identify agonists of the transient receptor potential channel N1 (TRPN1). [Related pubchem assays: 1526, 1424, 1448 ]; type: functional
Mucolipin-3 = Mucolipin-3 (Homo sapiens, UniProt Q8TDD5); assay: Dose response cell-based high-throughput screening assay for agonists of the transient receptor potential channel ML3 (TRPML3). [Related pubchem assays: 1526, 1424, 1448 ]; type: functional
[2] = molecular target: T1, Serine/threonine-protein phosphatase (Candida dubliniensis (strain CD36 / CBS 7987 / NCPF 3949 / NRRLY-17841) (Yeast), UniProt B9W6M3); assay: blockers of CaCl2-induced CDRE-lacZ signaling – S. cerevisiae, luminescence, secondary, dose response (AID 2388); type: functional, cell-based;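 further: yeast reporter cells carrying a calcineurin-responsive lacZ construct stimulated with calcium chloride; luminescent beta-galactosidase reporter signal in whole cells rather than isolated phosphatase activity; potency for inhibition where a drop in reporter signal means calcineurin blockade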
T1 sequence (B9W6M3 whole entry): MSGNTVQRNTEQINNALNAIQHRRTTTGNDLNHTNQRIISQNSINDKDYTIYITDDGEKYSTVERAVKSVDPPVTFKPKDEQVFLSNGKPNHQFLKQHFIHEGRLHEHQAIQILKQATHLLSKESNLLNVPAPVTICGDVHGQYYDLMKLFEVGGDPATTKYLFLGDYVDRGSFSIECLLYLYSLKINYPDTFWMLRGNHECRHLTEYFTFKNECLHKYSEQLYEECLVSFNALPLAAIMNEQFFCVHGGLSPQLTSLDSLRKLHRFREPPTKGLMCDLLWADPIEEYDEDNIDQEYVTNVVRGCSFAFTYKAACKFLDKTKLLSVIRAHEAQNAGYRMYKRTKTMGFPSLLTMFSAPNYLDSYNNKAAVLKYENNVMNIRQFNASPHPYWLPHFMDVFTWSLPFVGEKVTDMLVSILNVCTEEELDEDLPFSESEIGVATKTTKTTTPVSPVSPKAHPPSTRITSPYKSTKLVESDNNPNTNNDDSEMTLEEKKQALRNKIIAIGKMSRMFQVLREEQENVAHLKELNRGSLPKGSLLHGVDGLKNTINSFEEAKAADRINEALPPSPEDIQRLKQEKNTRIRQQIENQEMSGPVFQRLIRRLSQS

[3] = molecular target: Envelope glycoprotein gp160 (Human immunodeficiency virus 1, UniProt Q6QLK5); assay: cell-free HIV fusion peptide-binding blockers – biochemical, uHTS, fluorescence dequenching, […] (AID 1986)
[4] = fluconazole-exposed Candida albicans growth modulators – fluorescence, retest, confirmation (AID 2467); type: functional, cell-based
[5] = NIH-3T3 fibroblast cytotoxicity, dose response, cytotoxicity control, cell-based, fluorescence, Alamar Blue, secondary assay (AID 2327); type: functional;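 further: NIH-3T3 mouse fibroblasts cultured with fluconazole at 8 µg/mL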
[6] = molecular target: ATP-dependent molecular chaperone HSP82 (Candida albicans (strain WO-1) (Yeast), UniProt C4YTQ8); assay: steroid-induced GRE reporter decrease in yeast – S. cerevisiae, luminescence, Hsp90 inhibitor project, dose response (AID 2400); type: functional, cell-based;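 further: beta-galactosidase luminescence from glucocorticoid response element reporter as proxy for Hsp90 function; inhibitor potency where signal loss means Hsp90 inhibition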
[7] = molecular target: Tyrosine-protein phosphatase non-receptor type 12 (Homo sapiens, UniProt Q05209); assay: SAR Selectivity Analysis of small molecule inhibitors of PEST using pCAP in a fluorescence assay. [Related pubchem assays (depositor defined):AID1779, AID1784, AID2135]; type: functional
[8] = molecular target: T2, Tyrosine-protein phosphatase non-receptor type 22 (Homo sapiens, UniProt Q9Y2R2); assay: SAR LYP1 Fluorescent Assay using pCAP substrate for In Vitro dose response studies - Set 4. [Related pubchem assays (depositor defined):AID1779, AID1784]; type: functional
T2 sequence (Q9Y2R2 whole entry): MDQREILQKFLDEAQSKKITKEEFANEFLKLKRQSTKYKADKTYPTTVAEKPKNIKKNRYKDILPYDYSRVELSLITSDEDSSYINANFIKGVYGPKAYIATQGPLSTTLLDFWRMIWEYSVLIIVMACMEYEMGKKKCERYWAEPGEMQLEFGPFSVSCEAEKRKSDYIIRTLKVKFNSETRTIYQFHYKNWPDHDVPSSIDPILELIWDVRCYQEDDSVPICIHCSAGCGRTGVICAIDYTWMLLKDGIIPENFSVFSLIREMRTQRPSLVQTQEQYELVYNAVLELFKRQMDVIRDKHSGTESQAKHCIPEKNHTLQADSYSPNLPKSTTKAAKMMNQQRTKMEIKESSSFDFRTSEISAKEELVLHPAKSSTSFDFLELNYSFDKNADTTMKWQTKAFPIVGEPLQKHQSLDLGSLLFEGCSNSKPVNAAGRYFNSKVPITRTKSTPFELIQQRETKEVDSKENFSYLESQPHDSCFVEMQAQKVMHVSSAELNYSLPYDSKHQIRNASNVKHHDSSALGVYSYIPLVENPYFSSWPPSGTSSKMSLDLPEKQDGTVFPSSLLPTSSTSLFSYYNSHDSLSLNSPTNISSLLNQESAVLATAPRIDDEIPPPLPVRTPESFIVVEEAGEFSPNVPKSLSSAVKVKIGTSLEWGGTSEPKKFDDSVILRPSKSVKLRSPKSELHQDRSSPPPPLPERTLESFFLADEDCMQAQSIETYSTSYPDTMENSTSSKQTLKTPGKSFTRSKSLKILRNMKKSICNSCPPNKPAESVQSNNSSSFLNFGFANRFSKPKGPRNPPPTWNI

[9] = molecular target: T2, Tyrosine-protein phosphatase non-receptor type 22; assay: SAR LYP1 Fluorescent Assay using OMFP substrate for In Vitro dose response studies - Set 4. [Related pubchem assays (depositor defined):AID1779, AID1784, AID2140, AID2686]; type: functional
[10] = viability of uninfected HEp-2 cells – cell-based, HTS, cytotoxicity control for RSV inhibitor project, dose response (AID 2410); type: functional; conditions: human respiratory syncytial virus
[11] = molecular target: T3, Delta-type opioid receptor (Homo sapiens, UniProt P41143); assay: DOR agonists, SAR follow-up, image-based (AID 2370); type: functional
[12] = molecular target: T4, Kappa-type opioid receptor (Homo sapiens, UniProt P41145); type: functional
Mu-type opioid receptor [13] = molecular target: T5, Mu-type opioid receptor (Homo sapiens, UniProt P35372); assay: mu opioid receptor activators, image-based, SAR follow-up (AID 2352); type: functional
[14] = molecular target: T4, Kappa-type opioid receptor; type: functional; remark: listed apart in the source
Mu-type opioid receptor [15] = molecular target: T5, Mu-type opioid receptor; assay: mu opioid receptor blockers – image-based, SAR follow-up (AID 2420); type: functional;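 further: compounds added before stimulation of receptor with agonist DAMGO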
[16] = molecular target: T3, Delta-type opioid receptor; assay: HTS Image-Based Screen for Antagonists of the DOR Receptor. [Related pubchem assays (depositor defined):AID1777, AID1785, AID1786, AID2133]; type: functional
Mu-type opioid receptor [17] = molecular target: T5, Mu-type opioid receptor; assay: HTS Image-Based Screen for Agonists of the MOR Receptor. [Related pubchem assays (depositor defined):AID1777, AID1785, AID1786, AID2133]; type: functional
[18] = molecular target: T3, Delta-type opioid receptor; assay: HTS Image-Based Screen for Agonists of the DOR Receptor. [Related pubchem assays (depositor defined):AID1777, AID1786, AID2133]; type: functional
[19] = molecular target: T3, Delta-type opioid receptor; assay: delta opioid receptor blockers – image-based, SAR follow-up (AID 2357); type: functional
[20] = molecular target: T4, Kappa-type opioid receptor; assay: kappa opioid receptor blockers, image-based, SAR follow-up (AID 2348); type: functional

T3 sequence (P41143 whole entry): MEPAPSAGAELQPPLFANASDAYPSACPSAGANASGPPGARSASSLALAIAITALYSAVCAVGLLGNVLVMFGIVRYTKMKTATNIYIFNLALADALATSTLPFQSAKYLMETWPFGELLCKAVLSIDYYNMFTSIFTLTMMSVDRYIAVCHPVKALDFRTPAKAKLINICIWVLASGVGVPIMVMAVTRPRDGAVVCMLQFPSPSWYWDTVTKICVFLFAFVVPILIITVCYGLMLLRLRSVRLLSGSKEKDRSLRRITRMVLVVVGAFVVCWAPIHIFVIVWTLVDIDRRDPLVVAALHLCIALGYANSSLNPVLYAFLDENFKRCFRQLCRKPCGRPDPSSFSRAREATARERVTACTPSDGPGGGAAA
T4 sequence (P41145 whole entry): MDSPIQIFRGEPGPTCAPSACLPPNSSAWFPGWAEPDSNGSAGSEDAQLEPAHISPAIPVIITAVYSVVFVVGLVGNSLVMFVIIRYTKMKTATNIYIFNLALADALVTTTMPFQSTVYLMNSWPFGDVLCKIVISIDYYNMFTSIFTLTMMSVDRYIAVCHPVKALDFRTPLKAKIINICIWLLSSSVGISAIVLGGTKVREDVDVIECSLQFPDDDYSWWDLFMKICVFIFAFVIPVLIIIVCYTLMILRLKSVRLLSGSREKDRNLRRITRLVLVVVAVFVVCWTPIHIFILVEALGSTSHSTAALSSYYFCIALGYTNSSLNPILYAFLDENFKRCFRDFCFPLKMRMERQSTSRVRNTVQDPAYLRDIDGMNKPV
T5 sequence (P35372 whole entry): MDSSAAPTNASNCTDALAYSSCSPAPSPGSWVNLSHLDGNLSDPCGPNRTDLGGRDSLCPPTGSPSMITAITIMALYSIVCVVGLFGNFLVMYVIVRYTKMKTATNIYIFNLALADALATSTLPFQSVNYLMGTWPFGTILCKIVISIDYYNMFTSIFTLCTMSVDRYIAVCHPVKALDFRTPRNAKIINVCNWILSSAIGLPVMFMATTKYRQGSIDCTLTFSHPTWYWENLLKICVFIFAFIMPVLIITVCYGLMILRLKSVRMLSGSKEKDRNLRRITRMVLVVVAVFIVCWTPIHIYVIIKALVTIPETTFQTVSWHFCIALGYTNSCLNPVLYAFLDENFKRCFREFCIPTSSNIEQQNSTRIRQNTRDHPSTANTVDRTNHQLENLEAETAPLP
Envelope glycoprotein gp160, sequence (Q6QLK5 whole entry, the tested form may be a part): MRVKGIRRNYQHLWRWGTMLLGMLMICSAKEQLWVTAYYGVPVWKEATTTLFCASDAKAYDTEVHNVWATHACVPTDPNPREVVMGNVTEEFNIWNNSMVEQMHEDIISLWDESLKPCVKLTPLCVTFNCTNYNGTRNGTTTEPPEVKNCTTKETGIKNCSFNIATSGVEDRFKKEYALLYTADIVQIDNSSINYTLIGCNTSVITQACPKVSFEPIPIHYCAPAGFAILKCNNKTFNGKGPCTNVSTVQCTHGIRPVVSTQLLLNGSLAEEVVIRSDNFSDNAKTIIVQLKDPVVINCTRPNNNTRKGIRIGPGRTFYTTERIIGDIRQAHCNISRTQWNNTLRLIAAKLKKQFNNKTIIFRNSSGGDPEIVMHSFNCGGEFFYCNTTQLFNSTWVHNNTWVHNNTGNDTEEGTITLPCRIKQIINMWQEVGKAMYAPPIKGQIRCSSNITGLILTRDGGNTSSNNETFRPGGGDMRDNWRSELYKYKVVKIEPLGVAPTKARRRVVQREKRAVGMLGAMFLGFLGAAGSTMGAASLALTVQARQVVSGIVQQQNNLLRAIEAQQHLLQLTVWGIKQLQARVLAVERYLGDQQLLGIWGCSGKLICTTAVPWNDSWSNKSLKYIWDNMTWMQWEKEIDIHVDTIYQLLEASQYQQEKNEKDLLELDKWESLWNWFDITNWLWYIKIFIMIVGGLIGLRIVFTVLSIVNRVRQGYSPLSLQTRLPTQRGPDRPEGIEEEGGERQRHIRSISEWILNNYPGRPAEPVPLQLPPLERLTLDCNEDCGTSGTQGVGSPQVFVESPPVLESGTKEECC
NACHT, LRR and PYD domains-containing protein 3, sequence (Q96P20 whole entry, the tested form may be a part): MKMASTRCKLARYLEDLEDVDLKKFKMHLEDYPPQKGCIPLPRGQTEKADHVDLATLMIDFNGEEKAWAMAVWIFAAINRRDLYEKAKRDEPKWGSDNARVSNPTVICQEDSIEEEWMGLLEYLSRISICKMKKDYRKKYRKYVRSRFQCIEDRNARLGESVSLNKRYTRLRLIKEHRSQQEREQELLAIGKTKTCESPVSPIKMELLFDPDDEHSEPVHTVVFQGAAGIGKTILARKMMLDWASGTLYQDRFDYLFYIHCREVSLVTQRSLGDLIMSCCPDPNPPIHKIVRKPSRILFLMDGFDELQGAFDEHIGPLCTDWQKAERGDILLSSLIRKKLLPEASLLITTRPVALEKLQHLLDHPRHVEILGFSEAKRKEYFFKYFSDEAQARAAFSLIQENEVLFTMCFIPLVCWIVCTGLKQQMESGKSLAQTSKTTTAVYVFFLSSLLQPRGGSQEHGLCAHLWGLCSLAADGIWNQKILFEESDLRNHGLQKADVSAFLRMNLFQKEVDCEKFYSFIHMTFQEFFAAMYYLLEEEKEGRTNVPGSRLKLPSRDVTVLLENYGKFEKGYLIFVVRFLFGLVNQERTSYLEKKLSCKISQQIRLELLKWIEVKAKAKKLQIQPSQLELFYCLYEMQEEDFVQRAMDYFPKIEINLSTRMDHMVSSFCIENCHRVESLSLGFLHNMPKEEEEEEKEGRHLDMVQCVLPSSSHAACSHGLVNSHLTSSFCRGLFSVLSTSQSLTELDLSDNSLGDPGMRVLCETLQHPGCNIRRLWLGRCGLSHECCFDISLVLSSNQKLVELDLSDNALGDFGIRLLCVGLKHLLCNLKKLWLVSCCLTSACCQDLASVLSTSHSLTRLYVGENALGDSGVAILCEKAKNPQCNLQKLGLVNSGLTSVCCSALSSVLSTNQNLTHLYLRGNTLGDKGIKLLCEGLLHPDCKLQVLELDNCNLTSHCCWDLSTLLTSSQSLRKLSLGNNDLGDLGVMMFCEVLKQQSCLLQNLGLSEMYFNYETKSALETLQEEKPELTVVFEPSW
Tyrosine-protein phosphatase non-receptor type 12, sequence (Q05209 whole entry): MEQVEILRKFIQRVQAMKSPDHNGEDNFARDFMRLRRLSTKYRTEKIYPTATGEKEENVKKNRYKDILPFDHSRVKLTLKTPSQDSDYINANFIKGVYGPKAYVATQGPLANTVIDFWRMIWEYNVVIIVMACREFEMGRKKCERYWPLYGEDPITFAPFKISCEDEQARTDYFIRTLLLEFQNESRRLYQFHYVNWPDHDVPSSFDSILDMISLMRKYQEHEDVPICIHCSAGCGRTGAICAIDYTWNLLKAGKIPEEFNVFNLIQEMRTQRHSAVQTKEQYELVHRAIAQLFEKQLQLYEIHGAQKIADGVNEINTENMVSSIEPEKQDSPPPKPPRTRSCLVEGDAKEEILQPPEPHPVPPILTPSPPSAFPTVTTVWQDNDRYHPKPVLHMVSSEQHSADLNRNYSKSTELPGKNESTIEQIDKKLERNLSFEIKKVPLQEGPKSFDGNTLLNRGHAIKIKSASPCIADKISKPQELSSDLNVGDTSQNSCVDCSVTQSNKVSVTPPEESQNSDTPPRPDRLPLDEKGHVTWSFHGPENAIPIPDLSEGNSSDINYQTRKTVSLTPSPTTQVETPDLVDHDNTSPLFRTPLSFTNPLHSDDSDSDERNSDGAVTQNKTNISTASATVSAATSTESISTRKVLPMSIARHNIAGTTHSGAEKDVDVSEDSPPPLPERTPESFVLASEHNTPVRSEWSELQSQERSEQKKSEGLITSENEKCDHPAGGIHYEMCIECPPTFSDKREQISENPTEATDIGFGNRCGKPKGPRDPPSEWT
ATP-dependent molecular chaperone HSP82, sequence (C4YTQ8 whole entry): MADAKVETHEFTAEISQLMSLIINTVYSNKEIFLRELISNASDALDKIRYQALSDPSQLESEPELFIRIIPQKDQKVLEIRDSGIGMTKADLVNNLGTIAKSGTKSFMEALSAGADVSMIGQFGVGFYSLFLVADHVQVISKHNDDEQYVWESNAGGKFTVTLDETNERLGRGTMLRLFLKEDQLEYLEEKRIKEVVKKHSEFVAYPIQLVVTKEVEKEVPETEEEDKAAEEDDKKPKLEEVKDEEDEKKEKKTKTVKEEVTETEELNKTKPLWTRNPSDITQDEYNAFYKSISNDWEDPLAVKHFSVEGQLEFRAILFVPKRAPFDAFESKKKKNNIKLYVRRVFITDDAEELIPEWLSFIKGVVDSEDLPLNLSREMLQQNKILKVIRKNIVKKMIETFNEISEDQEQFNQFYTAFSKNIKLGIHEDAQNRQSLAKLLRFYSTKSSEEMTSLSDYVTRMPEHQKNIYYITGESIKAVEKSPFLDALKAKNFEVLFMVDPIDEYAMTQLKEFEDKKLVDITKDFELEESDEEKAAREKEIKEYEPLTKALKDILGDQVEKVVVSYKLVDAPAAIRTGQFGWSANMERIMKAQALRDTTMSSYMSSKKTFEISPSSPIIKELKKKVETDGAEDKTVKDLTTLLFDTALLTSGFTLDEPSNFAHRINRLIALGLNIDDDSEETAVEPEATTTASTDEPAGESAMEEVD
Mucolipin-3, sequence (Q8TDD5 whole entry): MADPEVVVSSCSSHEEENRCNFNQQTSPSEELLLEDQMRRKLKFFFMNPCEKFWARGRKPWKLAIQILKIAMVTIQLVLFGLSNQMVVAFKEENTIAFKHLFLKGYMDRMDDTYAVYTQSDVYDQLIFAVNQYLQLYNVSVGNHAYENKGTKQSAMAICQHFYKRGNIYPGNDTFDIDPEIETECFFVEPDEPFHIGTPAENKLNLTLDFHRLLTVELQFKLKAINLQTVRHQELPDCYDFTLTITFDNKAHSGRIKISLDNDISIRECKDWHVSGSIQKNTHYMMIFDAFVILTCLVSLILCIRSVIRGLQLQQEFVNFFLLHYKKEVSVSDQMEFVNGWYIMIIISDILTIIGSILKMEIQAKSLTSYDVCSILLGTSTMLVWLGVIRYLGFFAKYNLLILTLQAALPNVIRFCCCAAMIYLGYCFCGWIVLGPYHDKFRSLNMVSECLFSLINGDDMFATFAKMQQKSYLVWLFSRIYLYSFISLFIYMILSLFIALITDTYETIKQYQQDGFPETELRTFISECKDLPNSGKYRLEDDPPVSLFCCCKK

## CN(CCOc1ccccc1)c1ccc(S(=O)(=O)N2CCCCC2)cn1
[1]
  IC50: > 100 µM (inactive)
Ion channel NompC
  EC50: > 29.9 µM (not active)
Mucolipin-3
  EC50: 2.58 µM (active)

## CC(C)CCN1C(=O)c2ccc(C(=O)Nc3ccc(Br)cc3C(=O)O)cc2C1=O
[2]
  EC50: > 180 µM (inactive)
[3]
  IC50: > 99 µM (inactive)
[4]
  EC50: 2.46 µM (active)
[5]
  EC50: > 160 µM (inactive)
[6]
  EC50: 15.6 µM (active)

## CCOC(=O)COc1ccc(/C=N/NC(=O)c2ccc(-c3csc(Nc4ccc(Cl)cc4)n3)cc2)cc1
[7]
  IC50: 37.4 µM (active)
[8]
  IC50: 60.8 µM (active)
[9]
  IC50: 89 µM (active)

## Clc1cccc(CSc2nnc(-c3ccccn3)n2Cc2ccco2)c1
[10]
  CC50: 15.1 µM (active)
[11]
  EC50: > 32 µM (inactive)
[12]
  EC50: 5.6 µM
Mu-type opioid receptor [13]
  EC50: > 32 µM (inactive)
[14]
  EC50: 8.35 µM
Mu-type opioid receptor [15]
  IC50: > 32 µM (inactive)
[16]
  IC50: > 32 µM (inactive)
Mu-type opioid receptor [17]
  EC50: > 32 µM (inactive)
[18]
  EC50: > 32 µM (inactive)
[19]
  IC50: > 32 µM (inactive)
[20]
  IC50: > 32 µM (inactive)
